Results taken from PubChem BioAssay (NCI).
Where “and” joins values, the source holds several entries; their conditions need not be identical. Equal entries are not always repeated.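 Exposure lasted 48 hours, with cells grown in 96-well plates and compounds tested at five concentrations. GI50 = concentration required for 50% inhibition of growth. TGI: total growth inhibition.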

Key:
Experiment in all cases: growth of human tumour cells (NCI), 48 h
[1] = tested on: OVCAR-4 ovarian
[2] = tested on: OVCAR-5 ovarian
[3] = tested on: SN12C renal
[4] = tested on: ACHN renal
[5] = tested on: RXF 393 renal
[6] = tested on: HCC-2998 colon
[7] = tested on: MCF7 breast
[8] = tested on: KM12 colon
[9] = tested on: OVCAR-3 ovarian
[10] = tested on: MDA-MB-231 breast

Row | SMILES | GI50 [1] [µM] | TGI [1] [µM] | GI50 [2] [µM] | TGI [2] | GI50 [3] [µM] | TGI [3] | GI50 [4] [µM] | TGI [4] [µM] | GI50 [5] [µM] | TGI [5] [µM] | GI50 [6] [µM] | TGI [6] [µM] | GI50 [7] [µM] | TGI [7] [µM] | GI50 [8] [µM] | TGI [8] | GI50 [9] [µM] | TGI [9] | GI50 [10] [µM] | TGI [10]
1 | CC1(C)N=c2cc3c(cc2N1c1ccc(Cl)cc1)=Nc1ccccc1N3c1ccc(Cl)cc1 | 4.33 | > 100 | 8.13 | > 100 µM | 7.9 | > 100 µM | 3.53 | > 100 | 1.75 | 5.77 | 17.8 | > 100 | 2.41 | 23.4 | 6.84 | > 100 µM | 4.07 | 31.7 µM | 59.7 | > 100 µM
2 | COC(=O)C1=C(C(=O)ON)[C@@H]2C=C[C@@]1([C@@H](Cc1ccccc1)Nc1ccccc1)O2 | 1.62 | 3.04 | 15.6 | 31 µM | 1.87 | 3.69 µM | 1.67 | 3.04 | 1.67 | 3.04 | 17.2 | 32.5 | 2.34 | 8.12 | 15.5 | 32.1 µM | 1.57 | 3 µM | 1.79 | 3.78 µM
3 | FC(F)(F)c1cc(NC(=S)N2c3ccccc3-n3cccc3C2c2cccnc2)cc(C(F)(F)F)c1 (configuration not stated) | 6.24 | 23.8 | 22 | 59.2 µM | 12.1 | 35.9 µM | 7.11 | 62 | 11 | 35.8 | 5.1 | 19 | 12.9 | 32 | 8.9 | 32 µM | 3.01 | 9.47 µM | 8.39 | 31.1 µM
4 | O=C1OC(c2ccc(Cl)cc2)=N/C1=C\c1ccccc1 | – | > 100 | – | > 100 µM | – | > 100 µM | – | > 100 | – | > 100 | – | > 100 | – | > 100 | – | > 100 µM | – | > 100 µM | – | > 100 µM
5 | CCCCc1n(Cc2ccc3ccccc3n2)cc[n+]1Cc1ccc2ccccc2n1 | 0.381 | 13.5 | 2.66 | 13.7 µM | 1.41 | 11.1 µM | 17 | 42 | 4.17 | 16.5 | 0.813 | 10.4 | 0.807 | 11.2 | 0.742 | 6.19 µM | 0.698 | 10.7 µM | 1.77 | 9.35 µM
6 | Cc1ccc2[nH]c(C(=O)NN3C(=O)C(C)SC34CCC(C)CC4)c(-c3ccccc3)c2c1 (configuration not stated) | 14.8 | 34.7 | 17 | 34.6 µM | 13 | 28 µM | 19.9 | 44.2 | 13.7 | 30.1 | 16.6 | 31.7 | 17.5 | > 100 | 15.4 | 35.2 µM | 11.8 | 27.3 µM | 15.4 | 31.6 µM
7 | COc1ccc(C2CC(c3ccc(OC)cc3O)=NN2c2ccc(S(N)(=O)=O)cc2)cc1 (configuration not stated) | 30.8 | > 100 | 79.9 | > 100 µM | 16.7 | > 100 µM | 5.86 | > 100 | 25.6 | > 100 | 16.5 | > 100 | 4.11 | > 100 | 5.14 | > 100 µM | 12.2 | > 100 µM | 15.3 | > 100 µM
8 | CC(=O)Nc1ccc(OC(C)=O)cc1 | < 0.01 | > 91.7 | < 0.01 | > 100 µM | < 0.01 | 49.1 µM | < 0.01 | 76 | < 0.01 | 6.3 | < 0.0117 | 0.327 | < 0.01 | > 74.4 | < 0.01 | 12.1 µM | < 0.01 | < 0.0134 µM | < 0.01 | 2.04 µM
9 | CN[C@@H](Cc1cccc2ccccc12)C(=O)N[C@@H](CC(C)C)B(O)O | 0.0239 | – | 0.0187 | 0.0518 µM and 0.0204 µM | 0.0167 | 0.0722 µM and 0.0185 µM | – | > 100 | 0.018 | 0.0353 | 0.0162 | 0.0298 | 0.00637 | – | 0.0203 | 0.0444 µM and 0.0193 µM | 0.0158 | 0.037 µM and < 0.0147 µM | 0.0201 | 0.0446 µM and < 0.0145 µM
10 | COc1c(C)c(OC)c(C(=O)CC(C)C)c(OC)c1C | – | > 100 | – | > 100 µM | – | > 100 µM | – | > 100 | – | > 100 | – | > 100 | – | > 100 | – | > 100 µM | – | > 100 µM | – | > 100 µM
11 | CCc1cccc(NC(=O)Nc2ccc(Oc3ccc4nc(NC(=O)OC)[nH]c4c3)cc2)c1 | 4.45 | 9.89 | 15 | > 25 µM | 8.43 | > 25 µM | 10.8 | > 25 | 2.05 | 10.9 | 11.7 | > 25 | 0.654 | > 6.24 | 0.0985 | 4.94 µM | 3.65 | 10 µM | 7.76 | > 25 µM
12 | CC1(C)CCc2c(c(N=Nc3ccccc3F)c3ccccc3c2O)O1 | 66.2 | > 100 | 73.7 | > 100 µM | 22.7 | 53.1 µM | 22 | 52.5 | 79 | > 100 | 22.6 | > 100 | > 100 | > 100 | 23 | 65.1 µM | 20.5 | 51.2 µM | 17.6 | 37.9 µM
13 | O=C1c2ccccc2C(=O)c2c1oc1c2c(=O)[nH]c2ccc(Cl)cc21 | 0.165 | 0.443 | 3.44 | 14.7 µM | 0.198 | 0.463 µM | 0.203 | 0.577 | 0.21 | 0.577 | 0.637 | 2.55 | 0.23 | 1.05 | 0.447 | 3.02 µM | 0.239 | 0.557 µM | 0.165 | 0.519 µM
14 | O=C(Nc1cccc(C(F)(F)F)c1)c1ccc(NC2=C(Cl)C(=O)N(Cc3ccccc3)C2=O)cc1 | 25.8 | 54.7 | 16.3 | 34.5 µM | 4.4 | 20.1 µM | 15.3 | 29.5 | 29.4 | 64.8 | 1.29 | 2.85 | 2.02 | 4.54 | 10.5 | 24.8 µM | 2.09 | 4.63 µM | 6.53 | 23.9 µM
15 | Cc1c[nH]c(=O)n(Cc2nnc(CCC(=O)c3nc4ccccc4[nH]3)o2)c1=O | 0.629 | > 100 | 0.879 | > 100 µM | 1.12 | > 100 µM | 7.56 | > 100 | 0.697 | 3.83 | 0.421 | 7.14 | 0.205 | > 100 | 0.414 | > 33.1 µM | 0.315 | 1.26 µM | 0.671 | > 53 µM
16 | CCn1c(SCC(=O)Nc2cc(C(F)(F)F)ccc2Cl)nc2ccccc2c1=O | 22.5 | > 100 | 61.9 | > 100 µM | 76.9 | > 100 µM | 22.6 | > 100 | 15.6 | 66.9 | > 100 | > 100 | 94.4 | > 100 | > 100 | > 100 µM | 43.2 | > 100 µM | 18.9 | > 100 µM
17 | Cc1ccc(-c2nc(/C=N/Nc3cc(C)nc4ccc(Br)cc34)c(C)o2)cc1 | 1.89 | 3.49 | 1.86 | 3.36 µM | 1.88 | 3.69 µM | 1.8 | 3.21 | 1.65 | 3.22 | 1.74 | 3.28 | 1.92 | 3.99 | 1.89 | 3.6 µM | 1.88 | 3.36 µM | 1.98 | 3.77 µM
18 | O=C(c1ccc2ccccc2c1)c1c(C(F)(F)F)n([O-])c2cc(C(F)(F)F)ccc2[n+]1=O | 1.22 | 3.51 | 2.03 | 4.79 µM | 1.68 | 3.81 µM | 1.5 | 2.88 | 1.5 | 3.16 | 1.82 | 3.37 | 1.63 | 3.49 | 1.69 | 3.22 µM | 1.48 | 2.97 µM | 1.7 | 3.25 µM
19 | COc1cc(NS(C)(=O)=O)ccc1Cc1c2ccccc2nc2ccccc12 | 1.25 | 2.52 | 1.03 | 4.17 µM | 0.0742 | 1.17 µM | 0.0463 | 1.11 | 0.396 | 2.06 | 0.433 | 2.35 | 0.0517 | 5 | 0.396 | 2.01 µM | 0.785 | 2.06 µM | 1.28 | 2.78 µM
20 | CC1=C2[C@@H](CC1)[C@]1(C)O[C@@](C(C)C)(C[C@H]1OC(=O)CO)[C@H]2OC(=O)CCCc1ccccc1 | 11.9 | 29.1 | 15.7 | 30 µM | 4.52 | 18 µM | 7.02 | 19.3 | 11.9 | 25.6 | 12 | 24.6 | 13.2 | 29.7 | 5.97 | 20.1 µM | 6.94 | 22.5 µM | 12.9 | 31.8 µM
21 | CCCS(=O)(=O)Nc1cccc(Nc2ncnc3cc(NC(=O)CCl)ccc23)c1Cl | 2.95 | 7.76 | 2.01 | 5.64 µM | 1.06 | 3.85 µM | 3.44 | 7.23 | 3.26 | 7.13 | 5.09 | 10.6 | 1.05 | 5.92 | 3.06 | 7.13 µM | 2.98 | 6.62 µM | 2.34 | 6.08 µM
22 | O=C(c1ccccc1)C1OC1C(=O)c1ccccc1 (configuration not stated) | 3.84 | 26.3 | 3.86 | 25.2 µM | 3.22 | 63.4 µM | 3.67 | 15.7 | 2.37 | 10.2 | 2.94 | 10.3 | 2.34 | 14.7 | 3.51 | 11.9 µM | 1.77 | 6.7 µM | 3.31 | > 100 µM
23 | COc1cc2c(/C=C3/C(=O)Nc4ccc(O)cc43)c(Cl)n(Cc3cc(OC)c(OC)c(OC)c3)c2cc1C | 4.03 | > 100 | 15.6 | > 100 µM | 4.14 | > 44 µM | 3.43 | > 100 | 1.37 | 6.4 | 3.3 | > 36.1 | 0.776 | 19.7 | 1.63 | > 30.5 µM | 1.32 | > 20.8 µM | 4.75 | > 100 µM
